Assay results as given in US20080176339A1, “NEUTRAL LABELING REACTANTS AND CONJUGATES DERIVED THEREOF” (WALLAC OY, priority 2006, published 2008).

Columns and labels:
[1] = Stabilities of chelates in DELFIA Enhancement Solution and DELFIA Inducer (dissociation of europium followed by time-resolved fluorometer); format: physicochemical; details: RT (25° C.)
Method: The chelates (ca 1 mg) were dissolved either in Inducer or Enhanchement Solution. The dissociation of the europium at 25° C. were followed using a time-resolved fluorometer. The results are shown below

antiserum = assay: Performance of thyroxine tracers in DELFIA based T4-assay compared to AutoDELFIA Neonatal T4 kit; details: up to one week in instrument-like conditions
Method: The assay concentrations of the antiserum were optimized for each tracer individually, and the analytical sensitivities of the optimized standard curves were defined. The correlation between the methods were studied with a small sample panel. The on-board stability was tested up to one week in instrument-like conditions. Sensitivity to the interference of EDTA-containing samples was also studied.

[2] = in vivo; cited from earlier work

Question: Which “Approximate time needed for complete dissociation, Enhancer” value ([1]; DELFIA Enhancement Solution) does the source give for “Europium Chelate of 2-(4-aminobenzyl)-1,7-bis(aminocarbonylmethyl)-1,4,7-tris(carboxymethyl)-1,4,7-triazaheptane [Compound 10]” here?
Answer: The value was 30 min.

Question: What about the “Approximate time needed for complete dissociation, Inducer” value ([1]; DELFIA Inducer) of the same molecule?
Answer: The value was <5 min.

Question: Which On board stability (antiserum) does the source give for `O=C(O)CN(CCN(CC(=O)O)CC(Cc1ccc(NC(=S)NCCCCCC(=O)NC(Cc2cc(I)c(Oc3cc(I)c(O)c(I)c3)c(I)c2)C(=O)O)cc1)N(CC(=O)O)CC(=O)O)CC(=O)O` (centres unmarked) [Compound T4-DTPA] here?
Answer: The On board stability was “Better”.

Question: With `NC(=O)CN(CCN(CC(=O)O)CC(Cc1ccc(NC(=S)NCCCCCC(=O)NC(Cc2cc(I)c(Oc3cc(I)c(O)c(I)c3)c(I)c2)C(=O)O)cc1)N(CC(N)=O)CC(=O)O)CC(=O)O` (centres unmarked) [Compound 13] as the molecule, how does the On board stability (antiserum) read?
Answer: Its On board stability is “Better”.

Question: With `O=C([O-])CN(CCN(CC(=O)[O-])CC(=O)O)CCN(CC(=O)[O-])CC(=O)O.[Gd+3]` [Gd-DTPA] as the molecule, how does the “Crossing of intact blood-brain barrier” value [2] read?
Answer: Its value is “does not cross an intact blood-brain barrier”.
